Assay results reported in patent publication US5602239A, “5-O-desosaminylerythronolide derivatives” (Taisho Pharmaceutical Co., Ltd., priority 1993, dated 1997).
Converted amounts (≈) assume the structure as drawn.

Assays:
Assay type in all cases: cell-based
S. epidermides IID 866 = test: In vitro antibacterial activity (MIC), S. epidermides IID 866; settings: sensitive disc media, Japan Society of Chemotherapy method, read-out: MIC value (Minimum Inhibitory Concentration)
Method: (§1) The in vitro antibacterial activity of the compound of the present invention obtained in Example 9 against various experimental bacteria was measured using sensitive disc media (produced by Eiken Chemical Co.) according to the MIC measuring method specified by the Japan Society of Chemotherapy. 6-O-Methylerythromycin A was used as a comparative drug.

S. aureus B1 = test: In vitro antibacterial activity (MIC), S. aureus B1; settings: Staphylococcus aureus, sensitive disc media, Japan Society of Chemotherapy method, read-out: MIC value (Minimum Inhibitory Concentration)
Method: as §1

E. faecalis CSJ 1212 = test: In vitro antibacterial activity (MIC), E. faecalis CSJ 1212; settings: Enterococcus faecalis, CSJ1212, sensitive disc media, Japan Society of Chemotherapy method, read-out: MIC value (Minimum Inhibitory Concentration)
Method: as §1

S. aureus Smith 4 = test: In vitro antibacterial activity (MIC), S. aureus Smith 4; settings: Staphylococcus aureus, SMITH4, sensitive disc media, Japan Society of Chemotherapy method, read-out: MIC value (Minimum Inhibitory Concentration)
Method: as §1

S. aureus 209P-JC = test: In vitro antibacterial activity (MIC), S. aureus 209P-JC; settings: Staphylococcus aureus, sensitive disc media, Japan Society of Chemotherapy method, read-out: MIC value (Minimum Inhibitory Concentration)
Method: as §1

Row | SMILES | MIC (S. epidermides IID 866) | MIC (S. aureus B1) | MIC (E. faecalis CSJ 1212) | MIC (S. aureus Smith 4) | MIC (S. aureus 209P-JC)
1 | CC[C@H]1OC(=O)[C@H](C)[C@@H](O[C@H]2C[C@@](C)(OC)[C@@H](O)[C@H](C)O2)[C@H](C)[C@@H](O[C@@H]2O[C@H](C)C[C@H](N(C)C)[C@H]2O)[C@](C)(OC)C[C@@H](C)C(=O)[C@H](C)[C@@H](O)[C@]1(C)O [Comparative drug, 6-O-Methylerythromycin A] | 0.1 µg/mL (≈ 0.134 µM) | > 100 µg/mL | 0.78 µg/mL (≈ 1.04 µM) | 0.1 µg/mL (≈ 0.134 µM) | 0.1 µg/mL (≈ 0.134 µM)
2 | CC[C@H]1OC(=O)[C@H](C)[C@@H](Oc2ccc([N+](=O)[O-])cc2[N+](=O)[O-])[C@H](C)[C@@H](O[C@@H]2O[C@H](C)C[C@H](N(C)C)[C@H]2O)[C@](C)(OC)C[C@@H](C)C(=O)[C@H](C)[C@H]2OC(=O)O[C@@]21C [Example 9, 3-O-(2,4-dinitro)phenyl-5-O-desosaminyl-6-O-methylerythronolide A 11,12-cyclic carbonate] | 0.1 µg/mL (≈ 0.128 µM) | 0.78 µg/mL (≈ 0.998 µM) | 0.2 µg/mL (≈ 0.256 µM) | 0.1 µg/mL (≈ 0.128 µM) | 0.1 µg/mL (≈ 0.128 µM)
